This passage reports EC50 results from ChEMBL document CHEMBL2321875 (J Med Chem, 2013).

Bounds are passed on as bounds.

The assay has as its target T1, Protein-serine O-palmitoleoyltransferase porcupine (Mus musculus, UniProt Q9JJJ7).
T1 sequence (Q9JJJ7 whole entry): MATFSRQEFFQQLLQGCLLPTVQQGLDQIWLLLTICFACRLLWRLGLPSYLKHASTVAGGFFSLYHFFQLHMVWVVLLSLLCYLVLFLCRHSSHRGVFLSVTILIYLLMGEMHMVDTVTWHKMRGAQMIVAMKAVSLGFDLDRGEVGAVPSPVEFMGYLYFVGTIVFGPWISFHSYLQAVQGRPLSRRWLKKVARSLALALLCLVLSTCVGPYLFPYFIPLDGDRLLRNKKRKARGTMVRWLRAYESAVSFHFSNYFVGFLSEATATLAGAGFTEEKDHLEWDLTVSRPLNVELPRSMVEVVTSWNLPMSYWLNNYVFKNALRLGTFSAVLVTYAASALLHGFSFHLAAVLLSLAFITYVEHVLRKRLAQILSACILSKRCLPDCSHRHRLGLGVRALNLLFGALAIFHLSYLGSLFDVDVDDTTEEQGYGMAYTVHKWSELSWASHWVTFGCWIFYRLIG
The experiment in a line: Inhibition of porcupine-mediated Wnt signalling in mouse L cells after 24 hrs by SuperTopflash reporter assay. The format is cell-based. For orientation: In a reporter assay the amount or activity of a reporter protein is the signal.

Take `COc1ccc(-n2c(SCC(=O)Nc3nc4ccc(OC)cc4s3)nc3c(c2=O)SCC3)cc1`: the EC50 – broadly, the concentration at which the effect is half-maximal – was 120 nM.

As to `COc1ccc2nc(NC(=O)CSc3nc4c(c(=O)n3-c3ccccc3)SCC4)sc2c1`, the response was half-maximal at 40 nM (EC50). The compound `CCn1c(SCC(=O)Nc2nc3ccccc3s2)nc2c(c1=O)SC(C)C2` (centres undefined) yielded a concentration giving a half-maximal response (EC50) of 4000 nM.

In turn, `COc1ccc(-n2nc(C(=O)NCC(=O)Nc3nc4ccccc4s3)c3ccccc3c2=O)cc1` had a concentration giving a half-maximal response (EC50) of 25000 nM. `Cc1ccc2nc(NC(=O)CSc3nc4c(c(=O)n3-c3ccccc3)SCC4)sc2c1` had an EC50 of 30 nM. As for `O=C(CSc1nc2c(c(=O)n1-c1ccccc1)SCC2)Nc1nc2ccc(Cl)cc2s1`, the response was half-maximal at 40 nM (EC50).

`Cc1ccc2nc(NC(=O)CSc3nc4c(c(=O)n3C)SC(C)C4)sc2c1` (centres undefined): the response was half-maximal at 15 nM (EC50). In the case of `COc1ccc(-n2nc(C(=O)NCC(=O)Nc3nc4ccc(Cl)cc4s3)c3ccccc3c2=O)cc1` it was 15 nM; in that of `COc1ccccc1-n1c(SCC(=O)Nc2nc3ccc(C(F)(F)F)cc3s2)nc2c(c1=O)SCC2`, 30 nM.

On to `COc1ccc(-n2nc(C(=O)NCC(=O)Nc3nc4ccc(OC)cc4s3)c3ccccc3c2=O)cc1`, for which the EC50 came to 60 nM. `COc1ccccc1-n1nc(C(=O)NCC(=O)Nc2nc3ccccc3s2)c2ccccc2c1=O` returned an EC50 of 10000 nM. As to `COc1ccc2nc(NC(=O)CSc3nc4c(c(=O)n3-c3ccccc3OC)SCC4)sc2c1`, it took 50 nM to reach a half-maximal effect (EC50). Turning to `O=C(CNC(=O)c1nn(-c2ccc(F)cc2)c(=O)c2ccccc12)Nc1nc2ccccc2s1`, the EC50 was over 25000 nM.

The compound `O=C(CSc1nc2c(c(=O)n1-c1ccc(F)cc1)SCC2)Nc1nc2ccc(Cl)cc2s1` gave an EC50 of 175 nM.

`Cc1ccc2nc(NC(=O)CSc3nc4c(c(=O)n3-c3ccc(F)cc3)SCC4)sc2c1` had a 50% effective concentration (EC50) of 40 nM. For `COc1ccc(-n2c(SCC(=O)Nc3nc4ccc(C(F)(F)F)cc4s3)nc3c(c2=O)SCC3)cc1` the value was 100 nM; for `O=C(CNC(=O)c1nn(-c2ccccc2)c(=O)c2ccccc12)Nc1nc2ccccc2s1`, 2600 nM. In the case of `O=C(CNC(=O)c1nn(-c2ccccc2)c(=O)c2ccccc12)Nc1nc2ccc(F)cc2s1`, a half-maximal effect (EC50) was put at 470 nM.

The compound `O=C(CSc1nc2c(c(=O)n1-c1ccccc1)SCC2)Nc1ccc(-c2ccccc2)cc1` registered a concentration for a half-maximal effect (EC50) of 0.75 nM. On to `O=C(CSc1nc2c(c(=O)n1-c1ccccc1)SCC2)Nc1ccc(-c2ccccc2)nc1`, for which a half-maximal effect (EC50) was put at 0.3 nM. As to `O=C(CSc1nc2c(c(=O)n1-c1ccccc1)SCC2)Nc1ncc(-c2ccoc2)cn1`, the midpoint of the response, the EC50, lay at 1.5 nM. On to `O=C(CNC(=O)c1nn(-c2ccccc2)c(=O)c2ccccc12)Nc1nc2ccc(Cl)cc2s1`, for which the concentration giving a half-maximal response (EC50) worked out at 30 nM.

With `O=C(CSc1nc2c(c(=O)n1-c1ccccc1)SCC2)Nc1ncc(-c2ccco2)cn1`, it took 3.5 nM to reach a half-maximal effect (EC50). As for `COc1ccccc1-n1c(SCC(=O)Nc2nc3ccc(C)cc3s2)nc2c(c1=O)SCC2`, the midpoint of the response, the EC50, lay at 25 nM. As for `COc1ccc(-n2nc(C(=O)NCC(=O)Nc3nc4ccc(C)cc4s3)c3ccccc3c2=O)cc1`, the EC50 came to 25 nM. For `O=C(CSc1nc2c(c(=O)n1-c1ccccc1)SCC2)Nc1ccccc1-c1ccccc1` the value was over 5000 nM.

`COc1ccc2nc(NC(=O)CSc3nc4c(c(=O)n3-c3ccc(F)cc3)SCC4)sc2c1`: the EC50 was found to be 250 nM. On to `COc1ccc2nc(NC(=O)CNC(=O)c3nn(-c4ccc(F)cc4)c(=O)c4ccccc34)sc2c1`, for which a half-maximal response (EC50) required 90 nM. `COc1ccc2nc(NC(=O)CNC(=O)c3ccc(=O)n(-c4ccccc4)c3)sc2c1` showed an EC50 of over 25000 nM. Turning to `CCOC(=O)c1ccc2nc(NC(=O)CNC(=O)c3nn(-c4ccccc4)c(=O)c4ccccc34)sc2c1`, the EC50 was over 25000 nM.

Take `O=C(CSc1nc2c(c(=O)n1-c1ccc(F)cc1)SCC2)Nc1nc2ccc(C(F)(F)F)cc2s1`: a half-maximal response (EC50) required 100 nM. Compound `CCOc1ccc(NC(=O)CSc2nc3c(c(=O)n2-c2ccccc2)SCC3)cc1` showed a half-maximal effective concentration (EC50) of 1000 nM. For `CC(=O)c1ccc(NC(=O)CSc2nc3c(c(=O)n2-c2ccccc2)SCC3)cc1` the value was over 1000 nM; for `O=C(CNC(=O)c1nn(-c2ccccc2)c(=O)c2ccccc12)Nc1nc2ccc([N+](=O)[O-])cc2s1`, 240 nM; for `Cc1ccc2nc(NC(=O)CNC(=O)c3nn(-c4ccccc4)c(=O)c4ccccc34)sc2c1`, 35 nM. For `O=C(CSc1nc2c(c(=O)n1-c1ccccc1)SCC2)Nc1ccc(-c2cccnc2)cc1` the value was 0.45 nM; for `O=C(CSc1nc2c(c(=O)n1-c1ccccc1)SCC2)Nc1nc2ccc(C(F)(F)F)cc2s1`, 40 nM; for `O=C(CNC(=O)c1nn(-c2ccc(F)cc2)c(=O)c2ccccc12)Nc1nc2ccc(Cl)cc2s1`, 25 nM. As for `COc1ccc(-n2c(SCC(=O)Nc3nc4ccc(Cl)cc4s3)nc3c(c2=O)SCC3)cc1`, the 50% effective concentration (EC50) turned out to be 35 nM. For `O=C(CSc1nc2c(c(=O)n1-c1ccccc1)SCC2)Nc1ccc(-c2ccncc2)cc1` the value was 3 nM; for `CN(C)c1ccc(NC(=O)CSc2nc3c(c(=O)n2-c2ccccc2)SCC3)cc1`, over 1000 nM. As for `O=C(CSc1nc2c(c(=O)n1-c1ccccc1)SCC2)Nc1nc(-c2ccccc2)cs1`, the concentration giving a half-maximal response (EC50) was found to be 350 nM. As to `COc1ccc2nc(NC(=O)CNC(=O)c3nn(-c4ccccc4)c(=O)c4ccccc34)sc2c1`, the concentration for a half-maximal effect (EC50) came to 210 nM. Compound `O=C(CSc1nc2c(c(=O)n1-c1ccccc1)SCC2)Nc1ccc(-c2ccsc2)cn1` gave an EC50 of 2 nM. Consider `O=C(CSc1nc2c(c(=O)n1-c1ccccc1)SCC2)Nc1ccc(-c2ccccn2)cc1`, for which the concentration for a half-maximal effect (EC50) came to 4 nM.

In turn, `O=C(CNC(=O)c1nn(-c2ccccc2)c(=O)c2ccccc12)Nc1nccs1` displayed a 50% effective concentration (EC50) of over 25000 nM. `O=C(CSc1nc2c(c(=O)n1-c1ccccc1)SCC2)Nc1ccc(-c2cccnc2)cn1` had a 50% effective concentration (EC50) of 1 nM.

Consider `Cc1ccc2nc(NC(=O)CNC(=O)c3nn(-c4ccc(F)cc4)c(=O)c4ccccc34)sc2c1`, for which the EC50 was found to be 100 nM. Turning to `O=C(CSc1nc2c(c(=O)n1-c1ccccc1)SCC2)Nc1cccc(-c2ccccc2)c1`, the concentration giving a half-maximal response (EC50) was over 5000 nM. `O=C(CSc1nc2c(c(=O)n1-c1ccccc1)SCC2)Nc1ccc(-c2ccco2)cn1` had an EC50 of 3.5 nM.

With `COc1ccccc1-n1c(SCC(=O)Nc2nc3ccc(Cl)cc3s2)nc2c(c1=O)SCC2`, a half-maximal response (EC50) required 50 nM. `COc1ccc2nc(NC(=O)CNC(=O)c3nn(-c4ccccc4OC)c(=O)c4ccccc34)sc2c1` yielded an EC50 of 90 nM. Compound `COc1ccc2nc(NC(=O)CSc3nc4c(c(=O)n3-c3ccccc3)SCC4)ccc2c1` displayed an EC50 of 580 nM. In turn, `O=C(CNC(=O)c1nn(-c2ccccc2)c(=O)c2ccccc12)Nc1nc2ccc(C(F)(F)F)cc2s1` displayed an EC50 of 110 nM. `O=C(CNC(=O)c1nn(-c2ccc(F)cc2)c(=O)c2ccccc12)Nc1nc2ccc(C(F)(F)F)cc2s1` showed a half-maximal effective concentration (EC50) of 90 nM. In the case of `O=C(CSc1nc2c(c(=O)n1-c1ccccc1)SCC2)Nc1ccc(N2CCCCC2)cc1` it was 30 nM; in that of `CCOC(=O)c1ccc(NC(=O)CSc2nc3c(c(=O)n2-c2ccccc2)SCC3)cc1`, 300 nM; in that of `O=C(CSc1nc2c(c(=O)n1-c1ccccc1)SCC2)Nc1ncc(-c2ccccc2)s1`, 55 nM. In turn, `O=C(CSc1nc2c(c(=O)n1-c1ccccc1)SCC2)Nc1ncc(-c2ccccc2)cn1` came in with a concentration giving a half-maximal response (EC50) of 15 nM.
